Measured values reported in patent US9422254B2, “Methoxyacrylate-based fungicide and methods for preparing and using the same” (priority 2008, dated 2016).

Experiments:
[1] = system: Pyricularia oryzae; test: microbe, parasite or virus in culture; format: cell-based; details: read-out: Inhibition rate (%)
[2] = system: Alternaria alternata; test: microbe, parasite or virus in culture; format: cell-based; details: read-out: Inhibition rate (%)
[3] = system: Helminthosporium torulosum; test: microbe, parasite or virus in culture; format: cell-based; details: Corynespora torulosa, read-out: Inhibition rate (%)
[4] = system: Rhizoctonia solani (wheat sheath blight); test: microbe, parasite or virus in culture; format: cell-based; details: read-out: Inhibition rate (%)
[5] = system: Cucumber brown spot (strain SDHGHB060509); test: In vivo micro-screening assay
Text: (§1) 3. In Vivo Micro-Screening Assay

[6] = system: Pepper phytophthora blight (strain NSGP); test: In vivo micro-screening assay; design: species or system Phytophthora capsici; details: root-irrigation
Text: as §1

[7] = Acute oral test; format: in vivo, rat; details: in vivo
Experimental: (§2) The toxicological indexes of the compound were tested following the standard GB15670-1995 “Toxicological test methods of pesticides for registration” by Tongji Medical College, Huazhong University of Science and Technology.

[8] = system: rat; test: Acute oral test; format: in vivo; details: rat
Experimental: as §2

[9] = system: rabbit's skin; test: Skin stimulation test; format: in vivo
Experimental: as §2

[10] = Acute toxicity test on zebra fish; details: in vivo
Experimental: After acute toxicity and Ames test had been finished, environmental toxicity test was conducted following “Guideline for Environmental Safety Evaluation of Chemical Pesticides” of Agriculture Ministry of China by Shenyang Chemical Research Institute/Supervision and Test Center for Pesticide Safety Evaluation and Quality Control.

**Q.** Which inhibition at 0.3 µg/mL [1] does the source give for `CO/C=C(/C(=O)OC)c1ccccc1CSc1nc2cc(OC)ccc2s1` [Compound of Formula (I), (E)-methyl 3-methoxy-2-(2-((5-methoxy-benzothiazol-2-ylthio)methyl)phenyl)acrylate] here?
**A.** 23.6%

**Q.** And the inhibition at 3 µg/mL [1]?
**A.** 56.5%

**Q.** What about the inhibition at 30 µg/mL [1] of the same molecule?
**A.** 82.6%

**Q.** What about the inhibition at 0.3 µg/mL ([2]; 0.3 mg/L) of the same molecule?
**A.** 37.2%

**Q.** What about the inhibition at 3 µg/mL ([2]; 3 mg/L) of the same molecule?
**A.** 41.8%

**Q.** And the inhibition at 30 µg/mL ([2]; 30 mg/L)?
**A.** 43.1%

**Q.** What about the inhibition at 0.3 µg/mL ([3]; 0.3 mg/L) of the same molecule?
**A.** 11.3%

**Q.** What about the inhibition at 3 µg/mL ([3]; 3 mg/L) of the same molecule?
**A.** 18.4%

**Q.** What about the inhibition at 30 µg/mL ([3]; 30 mg/L) of the same molecule?
**A.** 21.4%

**Q.** What about the inhibition at 0.3 µg/mL ([4]; 0.3 mg/L) of the same molecule?
**A.** 22.2%

**Q.** What about the inhibition at 3 µg/mL ([4]; 3 mg/L) of the same molecule?
**A.** 44.4%

**Q.** And the inhibition at 30 µg/mL ([4]; 30 mg/L)?
**A.** 68.5%

**Q.** And the “prevention and treatment effect” value [5]?
**A.** good prevention and treatment effect

**Q.** What about the Disease index ([5]; 100 mg/L) of the same molecule?
**A.** 6.11

**Q.** And the “Efficacy (%)” value ([5]; 100 mg/L)?
**A.** 85.00%

**Q.** And the Disease index ([5]; 500 mg/L)?
**A.** 4.44

**Q.** And the “Efficacy (%)” value ([5]; 500 mg/L)?
**A.** 89.10%

**Q.** What about the “Efficacy (%)” value ([6]; 100 mg/L) of the same molecule?
**A.** 26.22%

**Q.** What about the “Spot area (mm^2)” value ([6]; 100 mg/L) of the same molecule?
**A.** 25.33 mm^2

**Q.** What about the “Efficacy (%)” value ([6]; 500 mg/L) of the same molecule?
**A.** 30.09%

**Q.** And the “Spot area (mm^2)” value ([6]; 500 mg/L)?
**A.** 24 mm^2

**Q.** What about the LD50 ([7]; Female rat) of the same molecule?
**A.** > 5000 mg/kg

**Q.** What about the LD50 ([7]; Male rat) of the same molecule?
**A.** > 5000 mg/kg

**Q.** And the “Toxicity (acute oral test)” value [8]?
**A.** Low toxicity

**Q.** What about the Skin stimulation [9] of the same molecule?
**A.** No stimulation on rabbit's skin

**Q.** And the LC50 at 24 h ([10]; 24 hrs)?
**A.** 0.069 µg/mL

**Q.** And the LC50 at 48 h ([10]; 48 hrs)?
**A.** 0.06 µg/mL

**Q.** And the LC50 at 72 h ([10]; 72 hrs)?
**A.** 0.047 µg/mL

**Q.** What about the LC50 at 96 h ([10]; 96 hrs) of the same molecule?
**A.** 0.043 µg/mL
